# Laboratory results as given in patent US11427593B2, “Bromodomain inhibitor compound and use thereof” (SHANGHAI INSTITUTE OF MATERIA MEDICA, CHINESE ACADEMY OF …, priority 2018, dated 2022).
# pIC50: −log10 of the molar value.
# Target: BRD4_BD1 (49-170) protein (Homo sapiens (Human), UniProt O60885)
# Assay: AlphaScreen assay: inhibition of binding of BRD4 bromodomain BD1 to acetylated histone H4 polypeptide
# Details: BRD4 BD1 vs acetylated H4 polypeptide, read-out: ALPHA IC50
# Description: AlphaScreen kit (Perkin Elmer) was used to detect effect of the compounds on binding of BRD4 bromodomain to acetylated histone H4 polypeptide. […] Each of fusion proteins containing (His)6tag can be recognized and bound by Ni^2+. […] The donor microbeads were coated with streptavidin and can bind to biotinylated acetylated H4 polypeptide. The acceptor microbeads were coated with Ni^2+ ions and can bind to the BD1 protein with (His)6tag. When the BD1 protein recognized the acetylated H4 polypeptide, the donor microbeads and the acceptor microbeads can be brought closer to a certain distance. Within this range, the donor microbeads can produce singlet oxygen after being irradiated with a 680 nm excitation light, and transfer the singlet oxygen to the acceptor microbeads. After a series of cascade chemical reactions, the acceptor microbeads will generate an emission wave of 520-620 nm, which in turn can be detected a signal. In this experiment, the test system was 20 μL, and the compound needs to be diluted in buffer 1 (20 mM HEPES pH 7.4, 150 mM NaCl, 1 mM dithiothreitol). First, a solution of 20 mM compound was consecutively diluted twice, each in 10 times, totally in 100 times to a concentration of 200 μM. […] The recombinant BD1 protein solution and the acetylated histone H4 polypeptide were diluted in the buffer 2 (20 mM HEPES pH 7.4, 150 mM NaCl, 0.01% Triton X-100, 0.1% bovine serum protein (w/v, Sigma), 1 mM dithiothreitol) to 100 nM and 100 nM respectively, to obtain a 8×BD1 protein working solution and a 4× acetylated histone H4 polypeptide working solution. The donor microbeads and the acceptor microbeads are diluted together in the buffer 2, both in the ratio of 1:100, to obtain a 2× microbead mixed working solution. The plate was added with 2.5 μL of BD1 protein working solution and incubated with the compound for 20 min at room temperature, and then added with 5 μL of acetylated histone H4 polypeptide working solution and incubated at room temperature for 5 min, and finally added with 10 μL of microbead mixed working solution and incubated at room temperature for 60 min. […] IC50 values of the compounds at different concentrations for inhibiting the binding of BD1 protein to acetylated H4 polypeptide were calculated by fitting using GraphPad Prism 5.0 software.
row,pIC50,SMILES
1,7.85,Cc1cc(-c2cc(NS(C)(=O)=O)ccc2Oc2cccnc2)n2cc[nH]c(=O)c12 [ZB-BD-94]
2,8.06,CCS(=O)(=O)Cc1ccc(Oc2ccc(F)cc2F)c(-c2cc(C)c3c(=O)[nH]ccn23)c1 [ZB-BD-116]
3,7.44,Cc1cc(-c2cc(NS(C)(=O)=O)ccc2Oc2cccnc2)n2cn[nH]c(=O)c12 [ZB-BD-120]
4,6.49,Cc1cc(-c2cc(S(C)(=O)=O)ccc2Nc2ccccc2)n2cc[nH]c(=O)c12 [ZB-BD-130]
5,7.84,CCS(=O)(=O)Cc1cnc(Oc2ccc(F)cc2F)c(-c2cc(C)c3c(=O)[nH]ncn23)c1 [ZB-BD-241]

# System: MV4-11 cells
# Assay: Cell growth inhibition assay, MV4-11 (CellTiter-Glo, 72 h)
# Type: cell-based
# Details: Homo sapiens, MV4-11 acute mononuclear leukemia cells
# Protocol: After seeding the cells in the plate, the cells were placed in a CO2 incubator (37° C., 5% CO2) and incubated for 1 h. […] After adding the compound, the cells were placed in a CO2 incubator (37° C., 5% CO2) for 72 h. CellTiter-Glo reagent (Promega, G7572) was used to determine cell survival. […] The detection result was analyzed and fitted by GraphPad Prism 5.0 software to give IC50 values.
row,SMILES,pIC50
1,Cc1cc(-c2cc(NS(C)(=O)=O)ccc2Oc2ccccc2)n2cc[nH]c(=O)c12 [ZB-BD-70],7.48
2,Cc1cc(-c2cc(NS(C)(=O)=O)ccc2Oc2ccccc2)n2c1C(=O)NCC2 [ZB-BD-74],7.51
3,CCS(=O)(=O)Nc1ccc(Oc2ccccc2)c(-c2cc(C)c3c(=O)[nH]ccn23)c1 [ZB-BD-77],7.87
4,CCS(=O)(=O)Nc1ccc(Oc2ccc(F)cc2F)c(-c2cc(C)c3c(=O)[nH]ccn23)c1 [ZB-BD-78],7.69
5,Cc1cc(-c2cc(NS(C)(=O)=O)ccc2Oc2ccc(F)cc2F)n2cc[nH]c(=O)c12 [ZB-BD-80],7.53
6,Cc1cc(-c2cc(NS(C)(=O)=O)ccc2OCC2CC2)n2cc[nH]c(=O)c12 [ZB-BD-83],6.88
7,Cc1cc(-c2cc(CS(C)(=O)=O)ccc2Nc2ccccc2)n2cc[nH]c(=O)c12 [ZB-BD-87],7.10
8,Cc1cc(-c2cc(CS(C)(=O)=O)ccc2Nc2ccc(F)cc2)n2cc[nH]c(=O)c12 [ZB-BD-90],7.12
9,Cc1cc(-c2cc(NS(C)(=O)=O)ccc2Oc2cccnc2)n2cc[nH]c(=O)c12 [ZB-BD-94],7.04
10,Cc1cc(-c2cc(NS(C)(=O)=O)ccc2OC2CCOCC2)n2cc[nH]c(=O)c12 [ZB-BD-96],> 7.00
11,Cc1cc(-c2cc(NS(C)(=O)=O)ccc2Oc2ccccc2)n2cn[nH]c(=O)c12 [ZB-BD-102],> 7.00
12,Cc1cc(-c2cc(NS(C)(=O)=O)ccc2Oc2ccc(F)cc2F)n2cn[nH]c(=O)c12 [ZB-BD-103],> 7.00
13,Cc1cc(-c2cc(NS(C)(=O)=O)ccc2Oc2cccnc2)n2cn[nH]c(=O)c12 [ZB-BD-120],6.95

# More lines, now with the values ahead:
row,pIC50,SMILES
1,7.60,Cc1ccccc1Oc1ccc(NS(C)(=O)=O)cc1-c1cc(C)c2c(=O)[nH]ccn12 [ZB-BD-232]
2,7.31,Cc1cccc(C)c1Oc1ccc(NS(C)(=O)=O)cc1-c1cc(C)c2c(=O)[nH]ccn12 [ZB-BD-236]
3,7.67,CCS(=O)(=O)Cc1ccc(Oc2c(C)cccc2C)c(-c2cc(C)c3c(=O)[nH]ccn23)c1 [ZB-BD-237]
4,7.04,CCS(=O)(=O)c1ccc(Oc2c(C)cccc2C)c(-c2cc(C)c3c(=O)[nH]ccn23)c1 [ZB-BD-239]
5,8.28,CCS(=O)(=O)c1ccc(Oc2ccccc2C)c(-c2cc(C)c3c(=O)[nH]ccn23)c1 [ZB-BD-240]
6,8.10,CCS(=O)(=O)Cc1cnc(Oc2ccc(F)cc2F)c(-c2cc(C)c3c(=O)[nH]ncn23)c1 [ZB-BD-241]

# System: MM.1S cells
# Assay: MM.1S cell growth inhibition assay (CellTiter Glo, 96 h)
# Type: cell-based
# Details: Homo sapiens, MM1.S, MM.1S multiple myeloma cells
# Protocol: The cell suspension was pipetted into a 15 mL centrifuge tube, and centrifuged at 800 rpm for 3 minutes. The supernatant was discarded. 2 mL of culture medium was added to the centrifuge tube, and the cells were resuspended evenly by gentle pipetting. The cell density was measure by a hemacytometer. Then the cell suspension was diluted to 50,000 cells/mL. The diluted cell suspension was added to a 96-well cell culture plate (Corning, 3599) in 100 μl/well (in column 1, there was 0.5% DMSO-containing medium in each well, and MM.1S cells were seeded in the remaining 88 wells). The plate was placed in a CO2 incubator overnight.
# The compound to be tested was prepared into 10 mM solution in DMSO, and then the compound was prepared into a 2 mM solution in DMSO, which was added to the compound plate, and then it was diluted with DMSO in a 4-fold gradient dilution to be 7 points. 0.5 μL of the compound in the plate of the compound to be tested was pipetted into the cell culture plate (the compound was added to rows A to G, and 0.5 μL of DMSO was added to row H as a control). The final concentrations of the compound were 10000 nM, 2500 nM, 625 nM, 156.25 nM, 39.06 nM, 9.77 nM, 2.44 nM. The plate was returned to the CO2 incubator and incubated for 96 h. Then cell survival was detected by using CellTiter Glo reagent (Promega, Cat. No. G7573, Lot. No. 0000310975). The cell culture plate was taken out and equilibrated to room temperature. 100 μL of CellTiter Glo reagent was added to each well. The plate was shaken for 10 min in the dark, and incubated for 10 min. Then the culture plate was put into a multi-functional microplate reader EnSpire (PerkinElmer) for reading, and detected at 400-700 nm. The reading data were recorded. […] XLFit was used to plot the dose-response inhibition curve (four-parameter model [fit=(A+((B−A)/(1+((C/x)^D))))] and calculate the IC50 values.
row,SMILES,pIC50
1,CCS(=O)(=O)Nc1ccc(Oc2ccc(F)cc2F)c(-c2cc(C)c3c(=O)[nH]ccn23)c1 [ZB-BD-78],7.28
2,Cc1cc(-c2cc(NS(C)(=O)=O)ccc2OC2CCCCC2)n2cc[nH]c(=O)c12 [ZB-BD-92],7.41
3,Cc1cc(-c2cc(CS(C)(=O)=O)ccc2Oc2ccc(F)cc2F)n2cc[nH]c(=O)c12 [ZB-BD-112],7.19
4,CCS(=O)(=O)Cc1ccc(Oc2ccc(F)cc2F)c(-c2cc(C)c3c(=O)[nH]ccn23)c1 [ZB-BD-116],7.15
5,Cc1cc(-c2cc(CS(C)(=O)=O)cnc2Oc2ccc(F)cc2F)n2cc[nH]c(=O)c12 [ZB-BD-147],7.13

# Now from value to molecule:
row,pIC50,SMILES
1,7.27,Cc1cc(-c2cc(NS(C)(=O)=O)cnc2OC2CCCCC2)n2cc[nH]c(=O)c12 [ZB-BD-179]
2,7.64,Cc1cc(-c2cc(CS(C)(=O)=O)ccc2OC2CCCCC2)n2cc[nH]c(=O)c12 [ZB-BD-187]
3,7.59,Cc1cc(-c2cc(CS(C)(=O)=O)cnc2OC2CCCCC2)n2cc[nH]c(=O)c12 [ZB-BD-202]
4,7.85,CCS(=O)(=O)Cc1cnc(Oc2ccc(F)cc2F)c(-c2cc(C)c3c(=O)[nH]ccn23)c1 [ZB-BD-216]

# Same assay, conditions: MM.1S multiple myeloma cells
row,SMILES,pIC50
1,"Cc1sc2c(c1C)C(c1ccc(Cl)cc1)=N[C@@H](CC(=O)OC(C)(C)C)c1nnc(C)n1-2 [JQ1, reference compound]",6.74
